Experimental data published in ChEMBL document CHEMBL5727642, “Bicyclic proline compounds” (2020).

Test: FLIPR Tetra Assay: IC50 (effective concentration) of compounds on the human and rat TRPA1 channels were determined using a FLIPR Tetra instrument. CHO cells expressing TRPA1 were plated into 384-well plates, incubated overnight at 37° C., and loaded with BD calcium indicator dye for 1 hr at 37° C. followed by 15 minutes. at room temperature. The assay buffer was Hank's Balanced Salt Solution (HBSS) containing 20 mM HEPES (pH readjusted to 7.4) along with 0.02% BSA.Following dye load and plate cool down, compounds were added to the cells using FLIPR Tetra. Plates were then incubated with compounds for 20 minutes at room temperature prior to adding agonist. Following this incubation, ˜EC80 concentration of cinnamaldehyde (75 uM for human TRPA1 and 45 uM for rat TRPA1) was added to active the channels and block of cinnamaldehyde induced calcium influx was measured.

| IC50 [nM] | Compound |
| --- | --- |
| 12.1 | O=C(NCc1cc(-c2cnc(C(F)(F)F)nc2)cnc1C(F)(F)F)[C@@H]1C2CC(C2)N1S(=O)(=O)c1ccc(F)cc1 |
| 6.08 | O=C(NCc1cc(-c2cnc(C(F)(F)F)nc2)ncc1Cl)[C@@H]1C2CC(C2)N1S(=O)(=O)c1ccc(F)cc1 |
| 10.6 | O=C(NCc1cc(-c2cnc(C(F)(F)F)nc2)c(F)cn1)[C@@H]1C2CC(C2)N1S(=O)(=O)c1ccc(F)c(F)c1 |
| 16.3 | O=C(NCc1cc(-c2cnc(C(F)(F)F)nc2)ncc1C1CC1)[C@@H]1C2CC(C2)N1S(=O)(=O)c1ccc(F)cc1 |
